pIC50: −log10 of the molar value. Where only a bound is given, the exact number is not on record here.

In one data set the target is Beta-secretase 1 (Homo sapiens, UniProt P56817). The data set is described as follows: Inhibition of BACE1 (1 to 454 residues) (unknown origin) using APP derived polypeptide harboring Lys-Met/Asn-Leu mutation as substrate by FRET assay.
Data set [1] in a line: Drug metabolism in mouse liver microsomes at 1 uM after 15 mins in presence of NADPH by HPLC-MS/MS analysis. The settings on record: read-out: Drug metabolism. The data set is classed as ADME, microsome. Background: Liver microsomes are vesicles of endoplasmic reticulum, rich in cytochrome P450 enzymes.
Another data set concerns the target Cytochrome P450 2C8 (Homo sapiens, UniProt P10632). The data set is described as follows: Reversible inhibition of recombinant human CYP2C8 by fluorescence-based assay. It counts as ADME.
A further data set deals with Cytochrome P450 2C9 (Homo sapiens, UniProt P11712). The data set is described as follows: Reversible inhibition of recombinant human CYP2C9 by fluorescence-based assay. The data set is classed as ADME.
The nature of data set [2]: Half life in Swiss mouse at 2.5 mg/kg, iv administered as bolus dose by LC-MS/MS analysis. The settings on record: in vivo. It counts as ADME, organism-based.
The subject of another data set is Salmonella typhimurium. Kind of data set: Mutagenicity in Salmonella typhimurium TA98 up to 500 ug/ml in presence of rat liver S9 fraction by Ames 2 assay. The note with it: salmonella enterica subsp. enterica serovar typhimurium. It counts as toxicity, organism-based.
The subject of a further data set is Rattus norvegicus. The data set is described as follows: Toxicity in Sprague-Dawley rat assessed as induction of pigmentation at 225 mg/kg/day, po administered via gavage for 1 month. The data set is classed as organism-based. The settings on record: in vivo.
A short description of data set [3]: AUC (0 to 24 hrs) in female Beagle dog at 70 mg/kg, po measured after 1 month repeated dosing by LC-MS/MS analysis. The note with it: in vivo.

Cytochrome P450 2C9, sequence (P11712 whole entry): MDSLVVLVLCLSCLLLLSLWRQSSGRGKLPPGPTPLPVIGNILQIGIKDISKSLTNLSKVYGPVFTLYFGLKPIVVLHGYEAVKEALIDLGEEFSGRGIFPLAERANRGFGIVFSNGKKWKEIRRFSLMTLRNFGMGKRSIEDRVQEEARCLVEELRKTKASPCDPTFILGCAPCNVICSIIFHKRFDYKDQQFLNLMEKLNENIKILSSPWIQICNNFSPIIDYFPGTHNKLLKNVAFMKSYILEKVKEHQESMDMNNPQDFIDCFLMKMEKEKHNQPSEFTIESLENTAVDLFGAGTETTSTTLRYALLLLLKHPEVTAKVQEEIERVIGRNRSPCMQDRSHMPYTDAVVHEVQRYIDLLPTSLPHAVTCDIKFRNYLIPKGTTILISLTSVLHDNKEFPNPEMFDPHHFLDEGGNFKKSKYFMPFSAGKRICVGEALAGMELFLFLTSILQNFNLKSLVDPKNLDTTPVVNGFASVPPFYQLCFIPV
Beta-secretase 1, sequence (P56817 whole entry, the tested form may be a part): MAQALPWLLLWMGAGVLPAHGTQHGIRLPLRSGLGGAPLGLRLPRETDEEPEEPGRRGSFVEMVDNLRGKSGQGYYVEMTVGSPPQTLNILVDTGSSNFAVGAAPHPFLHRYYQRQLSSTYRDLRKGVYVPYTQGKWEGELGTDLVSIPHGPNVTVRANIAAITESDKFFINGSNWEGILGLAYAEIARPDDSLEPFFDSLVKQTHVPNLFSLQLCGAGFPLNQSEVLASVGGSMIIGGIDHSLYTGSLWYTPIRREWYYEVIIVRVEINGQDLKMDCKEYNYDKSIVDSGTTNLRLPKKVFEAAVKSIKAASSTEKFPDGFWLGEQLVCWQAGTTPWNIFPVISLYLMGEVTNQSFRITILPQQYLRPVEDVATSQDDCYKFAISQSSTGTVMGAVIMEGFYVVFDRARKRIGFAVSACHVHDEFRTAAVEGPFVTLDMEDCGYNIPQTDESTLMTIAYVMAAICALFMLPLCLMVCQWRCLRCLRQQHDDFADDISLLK
Cytochrome P450 2C8, sequence (P10632 whole entry): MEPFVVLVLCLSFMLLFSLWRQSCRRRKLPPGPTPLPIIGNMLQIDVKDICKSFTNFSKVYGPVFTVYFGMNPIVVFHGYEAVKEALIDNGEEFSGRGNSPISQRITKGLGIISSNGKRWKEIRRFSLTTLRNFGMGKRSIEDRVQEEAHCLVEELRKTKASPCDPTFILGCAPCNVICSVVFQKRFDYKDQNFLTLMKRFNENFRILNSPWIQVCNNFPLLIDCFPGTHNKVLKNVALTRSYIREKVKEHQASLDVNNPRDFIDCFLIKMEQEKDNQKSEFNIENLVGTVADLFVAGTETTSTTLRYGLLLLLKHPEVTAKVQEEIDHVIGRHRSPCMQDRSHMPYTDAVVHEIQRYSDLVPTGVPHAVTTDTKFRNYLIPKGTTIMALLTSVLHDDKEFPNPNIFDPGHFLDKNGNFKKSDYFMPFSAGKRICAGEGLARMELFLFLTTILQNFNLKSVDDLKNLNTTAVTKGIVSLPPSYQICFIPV

As for `C[C@]1(c2cc(NC(=O)c3ccc(C#N)cn3)ccc2F)N=C(N)CO[C@H]1C(F)(F)F`, the pIC50 (commonly the negative decadic logarithm of the IC50, by convention in mol/L) at Beta-secretase 1 is 7.65; at Cytochrome P450 2C8, below 4.52; at Cytochrome P450 2C9, below 4.52. Moreover, the metabolised at 0.25 h, 1 µM in data set [1] came out at 13%. Further, in data set [2], the half-life (in general, the time in which the quantity being followed falls by half) is 1.4 h. The Activity result with Salmonella typhimurium and in the data set on Rattus norvegicus was “Non-Toxic” each time. The AUC (commonly the area under the concentration-time curve, a measure of exposure) at 24 h in data set [3] was 23100 ng·h/mL.
